According to article PMC6470603, “Design and Synthesis of Matrine Derivatives as Novel Anti-Pulmonary Fibrotic Agents via Repression of the TGFβ/Smad Pathway” (Molecules, 2019):

What was measured:
[1] = system: TGF-β1 induced total collagen accumulation in MRC-5 cells; assay: Sircol collagen assay: inhibition of TGF-β1-induced total collagen accumulation; assay type: cell-based, human; details: for IC50: Homo sapiens, MRC5, 10 ng/mL TGF-β1, 48 h, Sircol collagen assay; for SI, selectivity index (SI = CC50/IC50): MRC-5 cells
Protocol: Higher SI values indicates better safety profile.
MRC-5 cells in 1 × 10^5 cells/mL density were seeded in TC treated 96-well plates and allowed to reach confluence for 48 h. The cells were then starved using MEM-NEAA containing 0.2% BSA for 24 h. After starvation, the medium was changed to MEM-NEAA supplemented with 0.2% BSA, 100 μM L-Proline, 100 μM Ascorbic acid, with or without 10 ng/mL TGF-β1 (Peprotech) in the presence of vehicle or different concentrations of compounds. After 48 h incubation, the MRC-5 cells were washed with phosphate buffered saline (PBS) and fixed in −20 °C precooled methanol for 10 min. The cells were than washed with PBS before incubation in 0.1% PSR staining solution (0.1% Sirus red in saturated water solution of picric acid) for 1 h. The staining solution was then removed and the cells were washed with 0.1% acetic acid for three times. 200 μL of 0.1 mol/L sodium hydroxide solution were added to each well and the plates were placed on a rocking platform for 1 h. The optical density (OD) values at 550 nm were determined with an Infinite 2000 spectrophotometer.

[2] = Cytotoxicity assay (CCK-8); details: human, MRC-5 cells (human fetal lung fibroblasts)
Protocol: Cytotoxicity of all compounds were also determined against MRC-5 cells, so as to calculate selectivity index (SI, CC50/IC50).
MRC-5 cells in passage between 21 to 26 were used for experiments.
MRC-5 cells were incubated with different concentrations of compounds for 48 h, and then 10 μL of CCK-8 solution were added to each well. The cells were incubated at 37 °C for another 3 h before determining the OD values at 492 nm. DMSO at 0.1% v/v final concentration was used to solubilize the test compounds, except for compound 3b, 3c, and 3e, where 1% v/v DMSO was used to ensure complete solubilization.

MRC-5 fibroblasts = assay: Scratch (wound healing) assay, TGF-β1-induced fibroblast migration; assay type: cell-based, human; details: 1000 μM, 10 ng/mL TGF-β1, 24 h (TGF-β1 alone 85.0%)
Protocol: Fibroblast migration is the key event in pulmonary fibrogenesis. […] Inhibition of lung fibroblasts migration is a promising potential therapeutic target for IPF. We performed wound healing assay to investigate the inhibitory effect of 3f and matrine against fibroblast migration (Figure 7).
MRC-5 cells were seeded on 6-well plates and allowed to reach confluence for 48 h. The cell monolayer was gently scratched with a 1 mL pipette tip across the center of the well. After scratching, the cells were washed twice with medium to remove detached cells. The cells were then treated with or without 10 ng/mL TGF-β1 in the presence of vehicle or 10 μM 3f for 24 h. The gap area in wound region was quantitatively evaluated using ImageJ [30] and MRI wound healing tool plugin [31].

Row | Structure (SMILES) | IC50 [1] | SI, selectivity index (SI = CC50/IC50) [1] | CC50 at 48 h [2] | closure of wound area over 24 h period (MRC-5 fibroblasts)
1 | O=C1CC(n2ccc3cc([N+](=O)[O-])ccc32)C[C@@H]2[C@H]3CCCN4CCC[C@@H](CN12)[C@@H]34 (stereo partly shown) [3i, 13-(5-nitro-1H-indol-1-yl)-matrine] | 14.5 ± 1 µM | 4.5 | 65.4 ± 3.1 µM | –
2 | Cc1cn(C2CC(=O)N3C[C@@H]4CCCN5CCC[C@@H]([C@H]45)[C@H]3C2)c2ccccc12 (stereo partly shown) [3b, 13-(3-methyl-1H-indol-1-yl)-matrine] | 39 ± 0.6 µM | 2.4 | 95.1 ± 6.5 µM | –
3 | O=C1CC(n2ccc3cc(Br)ccc32)C[C@@H]2[C@H]3CCCN4CCC[C@@H](CN12)[C@@H]34 (stereo partly shown) [3g, 13-(5-bromo-1H-indol-1-yl)-matrine] | 6.5 ± 1.2 µM | 2.8 | 18.2 ± 0.6 µM | –
4 | O=C1CC(n2ccc3ccccc32)C[C@@H]2[C@H]3CCCN4CCC[C@@H](CN12)[C@@H]34 (stereo partly shown) [3a, 13-(1H-indol-1-yl)-matrine] | 28.3 ± 3.9 µM | 3.8 | 107 ± 5.9 µM | –
5 | O=C1CC(n2ccc3ccncc32)C[C@@H]2[C@H]3CCCN4CCC[C@@H](CN12)[C@@H]34 (stereo partly shown) [3n, 13-(1H-pyrrolo[2,3-c]pyridin-1-yl)-matrine] | 69.5 ± 8.2 µM | 1.2 | 84.2 ± 2.2 µM | –
6 | O=C1CCC[C@@H]2[C@H]3CCCN4CCC[C@@H](CN12)[C@@H]34 [Matrine] | 878 ± 68 µM | 2.8 | 2470 ± 103 µM | 56.6%
7 | O=C1CC(N2CCOCC2)C[C@@H]2[C@H]3CCCN4CCC[C@@H](CN12)[C@@H]34 (stereo partly shown) [2d, 13-morpholinocyclohexane-matrine] | 138 ± 9.8 µM | 3.7 | 507 ± 25.3 µM | –
8 | Cc1ccc(=O)n(-c2ccccc2)c1 [Pirfenidone, reference compound] | 1320 ± 98 µM | 3.1 | 4160 ± 239 µM | –
9 | COc1ccc2c(ccn2C2CC(=O)N3C[C@@H]4CCCN5CCC[C@@H]([C@H]45)[C@H]3C2)c1 (stereo partly shown) [3e, 13-(5-methoxy-1H-indol-1-yl)-matrine] | 68.1 ± 5.5 µM | 1.9 | 128 ± 1.4 µM | –
10 | O=C1CC(n2ccc3c([N+](=O)[O-])cccc32)C[C@@H]2[C@H]3CCCN4CCC[C@@H](CN12)[C@@H]34 (stereo partly shown) [3d, 13-(4-nitro-1H-indol-1-yl)-matrine] | 4.3 ± 0.4 µM | 7.6 | 32.8 ± 2.7 µM | –
11 | CNC1CC(=O)N2CC3CCCN4CCCC(C34)C2C1 (stereo not shown) [2a, 13-methylamino-matrine] | 65.3 ± 4.2 µM | 9.3 | 609 ± 29.8 µM | –
12 | O=C1CC(n2ccc3ccc([N+](=O)[O-])cc32)C[C@@H]2[C@H]3CCCN4CCC[C@@H](CN12)[C@@H]34 (stereo partly shown) [3m, 13-(6-nitro-1H-indol-1-yl)-matrine] | 19.3 ± 2.2 µM | 2.8 | 53.3 ± 1.9 µM | –
13 | O=C1CC(n2ccc3cnccc32)CC2C3CCCN4CCCC(CN12)C34 (stereo not shown) [3j, 13-(1H-pyrrolo[3,2-c]pyridin-1-yl)-matrine] | 16.7 ± 3.5 µM | 6.8 | 114 ± 5.9 µM | –
14 | COc1cccc2c1ccn2C1CC(=O)N2C[C@@H]3CCCN4CCC[C@@H]([C@H]34)[C@H]2C1 (stereo partly shown) [3c, 13-(4-methoxy-1H-indol-1-yl)-matrine] | 44.7 ± 3.6 µM | 1.3 | 56.7 ± 3.9 µM | –
15 | CN(C)C1CC(=O)N2CC3CCCN4CCCC(C34)C2C1 (stereo not shown) [2b, 13-dimethylamino-matrine] | 92.1 ± 1.9 µM | 6.8 | 624 ± 13.2 µM | –
16 | O=C1CC(n2ccc3ccc(F)cc32)C[C@@H]2[C@H]3CCCN4CCC[C@@H](CN12)[C@@H]34 (stereo partly shown) [3k, 13-(6-fluoro-1H-indol-1-yl)-matrine] | 23.1 ± 5.3 µM | 3.4 | 78.1 ± 3.4 µM | –
17 | N#Cc1ccc2c(ccn2C2CC(=O)N3C[C@@H]4CCCN5CCC[C@@H]([C@H]45)[C@H]3C2)c1 (stereo partly shown) [3h, 13-(5-cyano-1H-indol-1-yl)-matrine] | 72.1 ± 4 µM | 2.1 | 154 ± 11 µM | –
18 | O=C1CC(n2ccc3ccc(Cl)cc32)C[C@@H]2[C@H]3CCCN4CCC[C@@H](CN12)[C@@H]34 (stereo partly shown) [3l, 13-(6-chloro-1H-indol-1-yl)-matrine] | 27 ± 1.4 µM | 1.7 | 45.8 ± 1.1 µM | –
19 | O=C1CC(N2CCCC2)C[C@@H]2[C@H]3CCCN4CCC[C@@H](CN12)[C@@H]34 (stereo partly shown) [2c, 13-(pyrrolidine-1-yl)-matrine] | 256 ± 22.1 µM | 2.6 | 676 ± 49.1 µM | –
